# From US12358915B2, “METTL3 inhibitory compounds” (STORM THERAPEUTICS LTD., priority 2019, dated 2025)
# Read-outs that look alike come from different tables or passages of the source.
# Experiments:
# METTL3/14 = biological target: T1, METTL3/14 (Homo sapiens, UniProt Q86U44); assay: METTL3/14 methyltransferase assay (METTL3_14 RFMS, RapidFire mass spectrometry); assay type: biochemical; details: read-out: METTL3_14 RFMS IC50;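 further: recombinant His-tagged METTL3 with FLAG-tagged METTL14 from baculovirus, SAH product quantified by mass spectrometry against isotope-labelled internal standards, 60 min at room temperature, scaled between no-RNA and DMSO-only wells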
# T1 construct: The enzyme used was full-length his-tagged METTL3; His; made in house
# Procedure: The enzyme used was full-length his-tagged METTL3 co-expressed with full length FLAG-tagged METTL14 in a baculovirus expression system. […] After termination, plates were sealed, centrifuged and stored at 4° C. until analysis. […] Mass Spectrometry Analysis RNA methyltransferase activity was measured label free using the RapidFireTM mass spectrometry (RF/MS) platform. Stopped and stable assay plates were analyzed on the Agilent RF300 integrated autosampler/solid-phase extraction (SPE) system coupled to an ABSciex 4000 mass spectrometer for the generation of the product S-adenosyl homocysteine (SAH) and normalized to the ratio of signal of the two internal product standards, respectively. Solvent A was water containing 0.1% (v/v) TCA. Solvent B was acetonitrile/0.1% ammonium acetate (8:2, v/v). More specifically, plates were centrifuged at 4350 rpm for 10 min, samples were aspirated under vacuum for 600 ms, then loaded onto a C18 solid-phase extraction cartridge and washed for 3 s with solvent A at a flow rate of 1.5 mL/min. Retained product and internal standards were eluted with solvent B at a flow rate of 1 mL/min for 3 s and finally the cartridge was reequilibrated with solvent A for 500 ms.
# MOLM-13 cells = assay: MOLM13 CTG - analysis of cell proliferation (Cell Titre Glo); assay type: cell-based; details: Homo sapiens, geometric mean, read-out: CTG MOLM13 cells IC50 GEOMEAN
# [1] = 5 nM METTL3/14, 0.2 μM RNA substrate, 0.5 μM SAM, lower limit of the assay IC50=5 nM, Compounds 63-265
# [2] = 5 nM METTL3/14, 0.2 μM RNA substrate, 0.5 μM SAM, lower limit of the assay IC50=5 nM, Compounds 266-351
# T1 sequence (Q86U44 whole entry): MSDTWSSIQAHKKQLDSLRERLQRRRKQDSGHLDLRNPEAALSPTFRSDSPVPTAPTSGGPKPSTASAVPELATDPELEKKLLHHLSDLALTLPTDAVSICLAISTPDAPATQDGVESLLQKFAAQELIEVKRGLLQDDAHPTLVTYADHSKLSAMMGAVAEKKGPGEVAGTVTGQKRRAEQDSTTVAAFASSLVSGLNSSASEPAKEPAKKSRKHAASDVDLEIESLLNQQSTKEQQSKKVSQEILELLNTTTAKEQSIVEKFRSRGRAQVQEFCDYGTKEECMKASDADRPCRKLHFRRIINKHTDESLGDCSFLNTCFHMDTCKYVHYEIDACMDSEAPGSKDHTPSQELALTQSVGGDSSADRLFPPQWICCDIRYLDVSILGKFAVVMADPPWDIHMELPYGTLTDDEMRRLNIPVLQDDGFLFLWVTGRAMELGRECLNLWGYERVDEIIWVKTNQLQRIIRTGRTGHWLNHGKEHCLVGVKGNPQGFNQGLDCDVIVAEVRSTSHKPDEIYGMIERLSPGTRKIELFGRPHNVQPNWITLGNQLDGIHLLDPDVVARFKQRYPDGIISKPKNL
# T1 sequence (Q9HCE5 whole entry partner): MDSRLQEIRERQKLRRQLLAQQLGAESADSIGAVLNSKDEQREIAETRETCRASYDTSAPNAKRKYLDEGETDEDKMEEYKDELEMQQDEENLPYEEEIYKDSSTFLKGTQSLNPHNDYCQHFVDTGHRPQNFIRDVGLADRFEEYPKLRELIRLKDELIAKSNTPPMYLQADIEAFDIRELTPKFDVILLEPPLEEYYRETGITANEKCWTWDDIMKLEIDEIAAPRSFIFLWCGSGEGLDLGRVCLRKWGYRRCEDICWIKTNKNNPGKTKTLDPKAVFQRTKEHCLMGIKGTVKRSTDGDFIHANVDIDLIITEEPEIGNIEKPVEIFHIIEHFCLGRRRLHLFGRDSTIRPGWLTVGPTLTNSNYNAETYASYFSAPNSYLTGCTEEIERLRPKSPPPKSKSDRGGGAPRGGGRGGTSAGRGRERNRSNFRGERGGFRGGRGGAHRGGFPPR
Compound,IC50 (METTL3/14; [1]) [nM],IC50 (MOLM-13 cells) [µM],IC50 (METTL3/14; [2]) [nM],IC50 (METTL3/14) [nM]
"O=C(NCc1cn2cc(CNCC3CCC3)ccc2n1)c1cccc2[nH]ncc12 [Example 322, N-[[6-[(cyclobutylmethylamino)methyl]imidazo[1,2-a]pyridin-2-yl]methyl]-1H-indazole-4-carboxamide]",–,11,32.5,–
"O=C(O)c1cc(-c2cn(Cc3cn4cc(CNCC5CCC5)ccc4n3)nn2)c2cn[nH]c2c1 [Example 297, 4-[1-[[6-[(cyclobutylmethylamino)methyl]imidazo[1,2-a]pyridin-2-yl]methyl]triazol-4-yl]-1H-indazole-6-carboxylic acid]",–,≥ 30,737,–
"O=C1CC(c2ccc3nc(CNC(=O)c4cc(=O)n5ccccc5n4)cn3c2)NC(C2CCCCC2)C1 (mixture of isomers) [Example 334, N-[[6-(6-cyclohexyl-4-oxo-2-piperidyl)imidazo[1,2-a]pyridin-2-yl]methyl]-4-oxo-pyrido[1,2-a]pyrimidine-2-carboxamide]",–,17.9,122,–
"COC1(CNCc2ccc3nc(CNC(=O)c4cc(=O)n5ccccc5n4)cn3c2)CCC1 [Compound 273, N-[[6-[[(1-methoxycyclobutyl)methylamino]methyl]imidazo[1,2-a]pyridin-2-yl]methyl]-4-oxo-pyrido[1,2-a]pyrimidine-2-carboxamide]",–,9.02,27.7,–
"OC1(CNCc2ccc3nc(Cn4cc(-c5nccc6[nH]ncc56)nn4)cn3c2)CCC1 [Example 326, 1-[[[2-[[4-(1H-pyrazolo[4,3-c]pyridin-4-yl)triazol-1-yl]methyl]imidazo[1,2-a]pyridin-6-yl]methylamino]methyl]cyclobutanol]",–,10.7,76.6,–
"O=C(NCc1ccc2nc(CNC(=O)c3cc(=O)n4ccccc4n3)cn2c1)c1ccccc1 [Compound 237, 4-oxo-N-({6-[(phenylformamido)methyl]imidazo[1,2-a]pyridin-2-yl}methyl)-4H-pyrido[1,2-a]pyrimidine-2-carboxamide]",742,12.9,–,–
"O=c1cc(-c2cn(Cc3cn4cc(CNCC5CCC5)ccc4n3)nn2)nc2ccccn12 [Example 342, 2-[1-[[6-[(cyclobutylmethylamino)methyl]imidazo[1,2-a]pyridin-2-yl]methyl]triazol-4-yl]pyrido[1,2-a]pyrimidin-4-one]",–,6.71,18.4,–
"CC1(CNCc2ccc3nc(CNC(=O)c4cc(=O)n5ccccc5n4)cn3c2)CCC1 [Compound 282, N-[[6-[[(1-methylcyclobutyl)methylamino]methyl]imidazo[1,2-a]pyridin-2-yl]methyl]-4-oxo-pyrido[1,2-a]pyrimidine-2-carboxamide]",–,3.42,10.6,–
"O=C(c1cc(-c2cn(Cc3cn4cc(CNCC5CCC5)ccc4n3)nn2)c2cn[nH]c2c1)N1CCOCC1 [Example 300, [4-[1-[[6-[(cyclobutylmethylamino)methyl]imidazo[1,2-a]pyridin-2-yl]methyl]triazol-4-yl]-1H-indazol-6-yl]-morpholino-methanone]",–,≥ 30,511,–
"N#CCC(NCC1CCC1)c1ccc2nc(CNC(=O)c3cc(=O)n4ccccc4n3)cn2c1 (centres unmarked) [Example 330, N-[[6-[2-cyano-1-(cyclobutylmethylamino)ethyl]imidazo[1,2-a]pyridin-2-yl]methyl]-4-oxo-pyrido[1,2-a]pyrimidine-2-carboxamide]",–,≥ 30,202,–
"OC1(CNCc2ccc3nc(Cn4cc(-c5cc(F)cc6[nH]ncc56)nn4)cn3c2)CCC1 [Example 319, 1-[[[2-[[4-(6-fluoro-1H-indazol-4-yl)triazol-1-yl]methyl]imidazo[1,2-a]pyridin-6-yl]methylamino]methyl]cyclobutanol]",–,4.38,7.84,–
"COC(C)(C)CNCc1ccc2nc(CNC(=O)c3cc(=O)n4ccccc4n3)cn2c1 [Compound 281, N-[[6-[[(2-methoxy-2-methyl-propyl)amino]methyl]imidazo[1,2-a]pyridin-2-yl]methyl]-4-oxo-pyrido[1,2-a]pyrimidine-2-carboxamide]",–,≥ 30,98.7,–
"O=C(NCc1cn2cc(CNCC3(F)CCC3)ccc2n1)c1cc(=O)n2ccccc2n1 [Compound 206, N-{[6-({[(1-fluorocyclobutyl)methyl]amino}methyl)imidazo [1,2-a]pyridin-2-yl]methyl}-4-oxo-4H-pyrido [1,2-a]pyrimidine-2-carboxamide]",15.6,9.13,–,–
"O=C(NCc1cn2cc(CNCCC3CC(F)(F)C3)ccc2n1)c1cc(=O)n2ccccc2n1 [Compound 213, N-{[6-({[2-(3,3-difluorocyclo-butyl)ethyl]amino}methyl)imidazo[1,2-a]pyridin-2-yl]methyl}-4-oxo-4H-pyrido [1,2-a]pyrimidine-2-carboxamide]",41.8,≥ 30,–,–
"c1cc(-c2cn(Cc3cn4cc(CNCC5CCCCC5)ccc4n3)nn2)c2cn[nH]c2c1 [Compound 248, (cyclohexylmethyl)[(2-{[4-(1H-indazol-4-yl)-1H-1,2,3-triazol-1-yl]methyl}imidazo[1,2-a]pyridin-6-yl)methyl]amine]",12.7,1.93,–,–

# Other lines, results leading:
IC50 (METTL3/14; [1]) [nM],IC50 (MOLM-13 cells) [µM],IC50 (METTL3/14; [2]) [nM],IC50 (METTL3/14) [nM],Compound
20.3,5.02,–,–,"O=C(NCc1cn2cc(CNCC3CCCC3)ccc2n1)c1cc(=O)n2ccccc2n1 [Compound 210, N-[(6-{[(cyclopentyl-methyl)amino]methyl}imidazo [1,2-a]pyridin-2-yl)methyl]-4-oxo-4H-pyrido [1,2-a]pyrimidine-2-carboxamide]"
–,≥ 30,–,48.5,"O=C(NCc1cn2cc(CNCC34CC(C(F)(F)F)(C3)C4)ccc2n1)c1cc(=O)n2ccccc2n1 [Compound 87, 4-oxo-N-({6-[({[3-(trifluoromethyl)bicyclo[1.1.1]pentan-1-yl]methyl}amino)methyl]imidazo[1,2-a]pyridin-2-yl}methyl)-4H-pyrido [1,2-a]pyrimidine-2-carboxamide]"
122,≥ 30,–,–,"CN(Cc1ccccc1)Cc1ccc2nc(CNC(=O)c3cc(=O)n4ccccc4n3)cn2c1 [Compound 74, N-[(6-{[benzyl (methyl)amino]methyl}imidazo [1,2-a]pyridin-2-yl)methyl]-4-oxo-4H-pyrido [1,2-a]pyrimidine-2-carboxamide]"
8.02,0.715,–,–,"FC1(F)CC(CNCc2ccc3nc(Cn4cc(-c5cc(Br)cc6[nH]ncc56)nn4)cn3c2)C1 [Example 252, [(2-{[4-(6-bromo-1H-indazol-4-yl)-1H-1,2,3-triazol-1-yl]methyl}imidazo[1,2-a]pyridin-6-yl)methyl][(3,3-difluorocyclobutyl)methyl]amine]"
–,4.73,12.8,–,"CC[C@H](C)CNCc1ccc2nc(CNC(=O)c3cc(=O)n4ccccc4n3)cn2c1 [Compound 293, N-[[6-[[[(2S)-2-methylbutyl]amino]methyl]imidazo[1,2-a]pyridin-2-yl]methyl]-4-oxo-pyrido[1,2-a]pyrimidine-2-carboxamide]"
10,6.58,–,–,"O=C(NCc1cn2cc(CNCC3(O)CCCCC3)ccc2n1)c1cc(=O)n2ccccc2n1 [Compound 209, N-{[6-({[(1-hydroxycyclohexyl)methyl]amino}methyl)imidazo [1,2-a]pyridin-2-yl]methyl}-4-oxo-4H-pyrido [1,2-a]pyrimidine-2-carboxamide]"
7.58,2.93,–,–,"O=C(NCc1cn2cc(CNC[C@H]3C[C@H](F)C3)ccc2n1)c1cc(=O)n2ccccc2n1 [Compound 217, 4-oxo-N-({6-[({[(1r,3r)-3-fluorocyclo-butyl]methyl}amino)methyl]imidazo[1,2-a]pyridin-2-yl}methyl)-4H-pyrido[1,2-a] pyrimidine-2-carboxamide]"
5.76,0.727,–,–,"CC1(C)CCN(Cc2ccc3nc(Cn4cc(-c5cccc6[nH]ncc56)nn4)cn3c2)CC1 [Example 251, 4-[1-({6-[(4,4-dimethylpiperidin-1-yl)methyl]imidazo[1,2-a]pyridin-2-yl}methyl)-1H-1,2,3-triazol-4-yl]-1H-indazole]"
–,5.61,11.4,–,"OC1(CNCc2ccc3nc(Cn4cc(-c5ccc(F)c6[nH]ncc56)nn4)cn3c2)CCC1 [Example 308, 1-[[[2-[[4-(7-fluoro-1H-indazol-4-yl)triazol-1-yl]methyl]imidazo[1,2-a]pyridin-6-yl]methylamino]methyl]cyclobutanol]"
163,6.04,–,–,"CC(C)(NCc1ccc2nc(CNC(=O)c3cc(=O)n4ccccc4n3)cn2c1)c1ccccc1 [Compound 78, 4-oxo-N-[(6-{[(2-phenylpropan-2-yl)amino]methyl}imidazo[1,2-a]pyridin-2-yl)methyl]-4H-pyrido[1,2-a]pyrimidine-2-carboxamide]"
–,1.18,5.67,–,"Fc1cc(-c2cn(Cc3cn4cc(CNCC5CCC5)ccc4n3)nn2)c2cn[nH]c2c1 [Example 318, N-(cyclobutylmethyl)-1-[2-[[4-(6-fluoro-1H-indazol-4-yl)triazol-1-yl]methyl]imidazo[1,2-a]pyridin-6-yl]methanamine]"
–,4.5,13.1,–,"O=C(NCc1cn2cc(CNC3CC34CCC4)ccc2n1)c1cc(=O)n2ccccc2n1 (centres unmarked) [Compound 280, 4-oxo-N-[[6-[(spiro[2.3]hexan-2-ylamino)methyl]imidazo[1,2-a]pyridin-2-yl]methyl]pyrido[1,2-a]pyrimidine-2-carboxamide]"
32,8.74,–,–,"CC(NCc1ccc2nc(CNC(=O)c3cc(=O)n4ccccc4n3)cn2c1)C1CCCCC1 (centres unmarked) [Compound 203, N-[(6-{[(1-cyclohexylethyl)amino]methyl}imidazo[1,2-a]pyridin-2-yl)methyl]-4-oxo-4H-pyrido [1,2-a]pyrimidine-2-carboxamide]"
